Reference: patent publication US20170298056A1, “SMALL MOLECULE INHIBITORS OF HIV-1 ENTRY AND METHODS OF USE THEREOF” (Dana-Farber Cancer Institute, Inc., priority 2014, published 2017)

Tests used:
Format in all cases: cell-based
HIV-1YU2 = experiment: Viral infection assay, YU2 Env (wild type and mutants); details: for Fold change: mutant/wild-type IC50
From the text: HIV-1 Env mutants. Mutations were introduced into the plasmid expressing the fulllength HIV-1YU2 or HIV-1JR-FL Envs using the QuikChange II site-directed mutagenesis protocol or the QuikChange multi site-directed mutagenesis kit (Stratagene). The presence of the desired mutations was confirmed by DNA sequencing. All HIV-1 Env residues are numbered based on alignment with the HXBc2 prototypic sequence, according to current convention.
Production of recombinant HIV-1 expressing luciferase. […] After 48 hours, the supernatant was collected, buffered with 50 mM Hepes pH 7.4 (final concentration) and centrifuged for 5 minutes at 750×g and 4° C. The virus-containing supernatant was used directly or frozen at −80° C.
Viral infection assay. Each test compound was serially diluted in DMSO in a 96-well B&W isoplate (PerkinElmer, Boston, Mass.) using an HP D300 Digital Dispenser, to a final volume of 450 nl. DMSO was used as a control. Viruses pseudotyped with a specific Env were added to each well and incubated briefly at room temperature. Cf2Th-CD4/CCR5 cells were detached with StemPro Accutase Cell Dissociation Reagent (Invitrogen, cat #A11105-01), washed once, and 5000 cells were added to each well. […] Following incubation, the medium was aspirated and cells were lysed with 30 μl of Passive Lysis Buffer (Promega, cat #E1941). The activity of the firefly luciferase, which was used as a reporter protein in the system, was measured with a Centro LB 960 luminometer (Berthold Technologies, Oak Ridge, Tenn.). One hundred microliters of assay buffer (15 mM MgSO4, 15 mM KH2PO4/K2HPO4 pH 7.8, 1 mM ATP and 1 mM DTT) was injected to each well, followed by a 50 μl injection of 1 mM Dluciferin potassium salt (BD Pharmingen, San Jose, Calif.); luminescence was measured for 2 sec. Infection of PBMC was done as above, but 20,000-40,000 cells/well and viruses concentrated by ultracentrifugation were used. After four hours of incubation with viruses, the cells were centrifuged at 200×g for 6 minutes at 4° C., resuspended in 100 μl RPMI-PBMC medium and incubated at 37° C. for an additional 36-40 hours (total 40-44 hours). Supernatant was removed after centrifugation at 400×g for 5 minutes and cells were processed to detect luciferase activity, as described above.

PBMC = experiment: Viability assay (CellTiterGlo), PBMC; details: human PBMC, range of tested concentrations
Description: Viability Assay. As part of the secondary screen, cells were incubated for ˜20 hours in 384-well plates in a final volume of 45 μl growth medium at 37° C. The plate was equilibrated to room temperature, 15 μl of CellTiterGlo (Promega) was added to each well and luminescence was measured as described above. The viability assay with 18A was done in parallel to the viral infection assay for the same length of time. 18A was diluted using an HP D300 Digital Dispenser in a 96-well B&W isoplate and cells were added. After incubation of 26-30 hours (Cf2Th cells) or 40-44 hours (PBMC). 30 μl (Cf2Th cells) or 100 μl (PBMC) of CellTiterGlo was added and luminescence was measured as described above.

HIV-1JR-FL = experiment: Washout experiment, HIV-1JR-FL infection; details: washing out before infection
Description: For washout experiments, different concentrations of 18A were incubated with the recombinant viruses at 37° C. for 20 minutes. The viruses were laid on a 20% sucrose cushion and ultracentrifuged at 30,000 RPM in an SW55 rotor for 1.5 hours at 4° C. After the supernatant was aspirated, viruses were suspended in 500-1000 μl medium and 90 μl of the virus suspension was used to infect 5000 Cf2Th-CD4/CCR5 cells (5 replicates). The cells were incubated for 48 hours and processed as described above. Sensitivity of recombinant viruses to cold inactivation was measured.

**Q.** How did the IC50 (HIV-1YU2; YU2 Env D113A) turn out when O=C(N/N=C/c1ccc(O)cc1)Nc1cccc2nsnc12 [Compound 18A] was run?
**A.** 6 ± 1.4 µM

**Q.** What about the Fold change (HIV-1YU2; YU2 Env D113A) of the same compound?
**A.** 0.7

**Q.** What about the IC50 (HIV-1YU2; YU2 Env D589L) of the same compound?
**A.** 12.1 ± 1.5 µM

**Q.** And the Fold change (HIV-1YU2; YU2 Env D589L)?
**A.** 1.4

**Q.** And the IC50 (HIV-1YU2; YU2 Env E370A)?
**A.** 2.3 ± 0.8 µM

**Q.** What about the Fold change (HIV-1YU2; YU2 Env E370A) of the same compound?
**A.** 0.3

**Q.** What about the IC50 (HIV-1YU2; YU2 Env E429K) of the same compound?
**A.** 9 ± 1.4 µM

**Q.** And the Fold change (HIV-1YU2; YU2 Env E429K)?
**A.** 1.1

**Q.** What about the IC50 (HIV-1YU2; YU2 Env H66A) of the same compound?
**A.** 8 ± 0.9 µM

**Q.** What about the Fold change (HIV-1YU2; YU2 Env H66A) of the same compound?
**A.** 1

**Q.** What about the IC50 (HIV-1YU2; YU2 Env H66N) of the same compound?
**A.** 4.6 ± 0.5 µM

**Q.** What about the Fold change (HIV-1YU2; YU2 Env H66N) of the same compound?
**A.** 0.5

**Q.** What about the IC50 (HIV-1YU2; YU2 Env I108A) of the same compound?
**A.** 6.1 ± 0.7 µM

**Q.** What about the Fold change (HIV-1YU2; YU2 Env I108A) of the same compound?
**A.** 0.7

**Q.** What about the IC50 (HIV-1YU2; YU2 Env I109W) of the same compound?
**A.** 2.9 ± 0.4 µM

**Q.** And the Fold change (HIV-1YU2; YU2 Env I109W)?
**A.** 0.3

**Q.** What about the IC50 (HIV-1YU2; YU2 Env I285A) of the same compound?
**A.** 6.3 ± 1.5 µM

**Q.** What about the Fold change (HIV-1YU2; YU2 Env I285A) of the same compound?
**A.** 0.7

**Q.** And the IC50 (HIV-1YU2; YU2 Env I309A)?
**A.** 4.2 ± 1.3 µM

**Q.** And the Fold change (HIV-1YU2; YU2 Env I309A)?
**A.** 0.5

**Q.** What about the IC50 (HIV-1YU2; YU2 Env I371A) of the same compound?
**A.** 6.5 ± 0.9 µM

**Q.** What about the Fold change (HIV-1YU2; YU2 Env I371A) of the same compound?
**A.** 0.8

**Q.** What about the IC50 (HIV-1YU2; YU2 Env I420C) of the same compound?
**A.** 2.1 ± 0.4 µM

**Q.** And the Fold change (HIV-1YU2; YU2 Env I420C)?
**A.** 0.2

**Q.** What about the IC50 (HIV-1YU2; YU2 Env I420S) of the same compound?
**A.** 4.8 ± 0.8 µM

**Q.** What about the Fold change (HIV-1YU2; YU2 Env I420S) of the same compound?
**A.** 0.6

**Q.** What about the IC50 (HIV-1YU2; YU2 Env I423R) of the same compound?
**A.** 2.4 ± 0.4 µM

**Q.** And the Fold change (HIV-1YU2; YU2 Env I423R)?
**A.** 0.3

**Q.** And the IC50 (HIV-1YU2; YU2 Env K117W)?
**A.** 6.5 ± 1.1 µM

**Q.** And the Fold change (HIV-1YU2; YU2 Env K117W)?
**A.** 0.8

**Q.** And the IC50 (HIV-1YU2; YU2 Env L111A)?
**A.** 10.4 ± 1.6 µM

**Q.** What about the Fold change (HIV-1YU2; YU2 Env L111A) of the same compound?
**A.** 1.2

**Q.** And the IC50 (HIV-1YU2; YU2 Env L260A)?
**A.** 3.4 ± 1.5 µM

**Q.** And the Fold change (HIV-1YU2; YU2 Env L260A)?
**A.** 0.4

**Q.** And the IC50 (HIV-1YU2; YU2 Env L261A)?
**A.** 4.9 ± 1 µM

**Q.** And the Fold change (HIV-1YU2; YU2 Env L261A)?
**A.** 0.6

**Q.** What about the IC50 (HIV-1YU2; YU2 Env L317A) of the same compound?
**A.** 10.2 ± 1.4 µM

**Q.** And the Fold change (HIV-1YU2; YU2 Env L317A)?
**A.** 1.2

**Q.** And the IC50 (HIV-1YU2; YU2 Env M475A (associated with resistance to BMS-806))?
**A.** 10.2 ± 2.6 µM

**Q.** What about the Fold change (HIV-1YU2; YU2 Env M475A) of the same compound?
**A.** 1.2

**Q.** What about the IC50 (HIV-1YU2; YU2 Env N377A) of the same compound?
**A.** 3.3 ± 0.6 µM

**Q.** And the Fold change (HIV-1YU2; YU2 Env N377A)?
**A.** 0.4

**Q.** And the IC50 (HIV-1YU2; YU2 Env P212A)?
**A.** 10.2 ± 1.5 µM

**Q.** What about the Fold change (HIV-1YU2; YU2 Env P212A) of the same compound?
**A.** 1.2

**Q.** What about the IC50 (HIV-1YU2; YU2 Env Q114N) of the same compound?
**A.** 14.8 ± 2.1 µM

**Q.** And the Fold change (HIV-1YU2; YU2 Env Q114N)?
**A.** 1.7

**Q.** And the IC50 (HIV-1YU2; YU2 Env S110A)?
**A.** 7.3 ± 1.6 µM

**Q.** And the Fold change (HIV-1YU2; YU2 Env S110A)?
**A.** 0.9

**Q.** What about the IC50 (HIV-1YU2; YU2 Env S110N) of the same compound?
**A.** 5.9 ± 1.8 µM

**Q.** And the Fold change (HIV-1YU2; YU2 Env S110N)?
**A.** 0.7

**Q.** And the IC50 (HIV-1YU2; YU2 Env S375A)?
**A.** 10 ± 1.3 µM

**Q.** And the Fold change (HIV-1YU2; YU2 Env S375A)?
**A.** 1.2

**Q.** And the IC50 (HIV-1YU2; YU2 Env S375W (associated with resistance to BMS-806))?
**A.** 14.6 ± 2.8 µM

**Q.** What about the Fold change (HIV-1YU2; YU2 Env S375W) of the same compound?
**A.** 1.7

**Q.** What about the IC50 (HIV-1YU2; YU2 Env T71A) of the same compound?
**A.** 7.1 ± 1.4 µM

**Q.** What about the Fold change (HIV-1YU2; YU2 Env T71A) of the same compound?
**A.** 0.8

**Q.** And the IC50 (HIV-1YU2; YU2 Env T257A)?
**A.** 13.2 ± 1.1 µM

**Q.** What about the Fold change (HIV-1YU2; YU2 Env T257A) of the same compound?
**A.** 1.5

**Q.** What about the IC50 (HIV-1YU2; YU2 Env T257S) of the same compound?
**A.** 6.9 ± 0.8 µM

**Q.** And the Fold change (HIV-1YU2; YU2 Env T257S)?
**A.** 0.8

**Q.** And the IC50 (HIV-1YU2; YU2 Env V255A)?
**A.** 14 ± 1.2 µM

**Q.** And the Fold change (HIV-1YU2; YU2 Env V255A)?
**A.** 1.6

**Q.** And the IC50 (HIV-1YU2; YU2 Env V255G)?
**A.** 7.9 ± 1.7 µM

**Q.** And the Fold change (HIV-1YU2; YU2 Env V255G)?
**A.** 0.9

**Q.** And the IC50 (HIV-1YU2; YU2 Env V255I)?
**A.** 5.4 ± 1.3 µM

**Q.** And the Fold change (HIV-1YU2; YU2 Env V255I)?
**A.** 0.6

**Q.** And the IC50 (HIV-1YU2; YU2 Env V255W)?
**A.** 3.6 ± 1.3 µM

**Q.** What about the Fold change (HIV-1YU2; YU2 Env V255W) of the same compound?
**A.** 0.4

**Q.** And the IC50 (HIV-1YU2; YU2 Env V430A)?
**A.** 5.9 ± 0.6 µM

**Q.** And the Fold change (HIV-1YU2; YU2 Env V430A)?
**A.** 0.7

**Q.** And the IC50 (HIV-1YU2; YU2 Env V430S)?
**A.** 2.9 ± 0.3 µM

**Q.** And the Fold change (HIV-1YU2; YU2 Env V430S)?
**A.** 0.3

**Q.** What about the IC50 (HIV-1YU2; YU2 Env W69L) of the same compound?
**A.** 3.5 ± 0.5 µM

**Q.** What about the Fold change (HIV-1YU2; YU2 Env W69L + S375W) of the same compound?
**A.** 1.7

**Q.** What about the Fold change (HIV-1YU2; YU2 Env W69L) of the same compound?
**A.** 0.4

**Q.** And the IC50 (HIV-1YU2; YU2 Env W479A)?
**A.** 1.3 ± 0.2 µM

**Q.** And the Fold change (HIV-1YU2; YU2 Env W479A)?
**A.** 0.2

**Q.** What about the IC50 (HIV-1YU2; YU2 Env W596M) of the same compound?
**A.** 9.4 ± 1.4 µM

**Q.** And the Fold change (HIV-1YU2; YU2 Env W596M)?
**A.** 1.1

**Q.** And the IC50 (HIV-1YU2; YU2 Env double mutant W69L + S375W)?
**A.** 15 ± 2.5 µM

**Q.** And the IC50 (HIV-1YU2; YU2 Env wild type)?
**A.** 8.6 ± 1.4 µM

**Q.** And the Fold change (HIV-1YU2; YU2 Env wild type)?
**A.** 1

**Q.** What about the “effect on viability of the cells” value (PBMC) of the same compound?
**A.** No significant effect

**Q.** And the “reversibility of inhibition of HIV-1 infection” value (HIV-1JR-FL)?
**A.** reversible
